25 compounds from US10604489B2, “Compounds for the treatment of pain” (priority 2018, dated 2020) can be followed below.

Counter-ions that a name gives are not always drawn.

In one assay the target is μ-receptor (Homo sapiens (Human), UniProt P35372). The experiment in a line: Receptor binding, competitive displacement of [3H]DAMGO. Conditions: 0.25 nM [3H]DAMGO, CHO cell membrane protein, 60 min at 25° C. As for the experimental part: The Ki (binding affinity) for μ-receptor was determined with a previously described method using a competitive displacement assay (Neumeyer et al., J. Med. Chem., v. 46, p. 5162-5170, 2003). Membrane protein from CHO (Chinese Hamster Ovarian) cells that stably expressed one type of the cloned human opioid receptor were incubated with 12 different concentrations of the compound in the presence of 0.25 nM [3H]DAMGO, 0.2 nM [3H]naltrindole or 1 nM [3H]U69,593 in a final volume of 1 mL of 50 mM Tris-HCl, pH 7.5 at 25° C. Incubation times of 60 min were used for [3H]DAMGO and [3H]U69,593. Because of a slower association of [3H]naltrindole with the receptor, a 3 h incubation was used with this radioligand. Samples incubated with [3H]naltrindole also contained 10 mM MgCl2 and 0.5 mM phenylmethylsulfonyl fluoride. Nonspecific binding was measured by inclusion of 10 μM naloxone. The binding was terminated by filtering the samples through Schleicher & Schuell No. 32 glass fiber filters using a Brandel 48-well cell harvester. The filters were subsequently washed three times with 3 mL of cold 50 mM Tris-HCl, pH 7.5, and were counted in 2 mL Ecoscint A scintillation fluid. For [3H]naltrindole and [3H]U69,593 binding, the filters were soaked in 0.1% polyethylenimine for at least 60 min before use. IC50 values will be calculated by least squares fit to a logarithm-probit analysis. Ki values of unlabelled compounds were calculated from the equation Ki=(IC50)/1+S where S=(concentration of radioligand)/(Kd of radioligand) (Cheng and Prusoff, Biochemical Pharmacology, v. 22, p. 3099-3108, 1973).
(In general: Loss of bound radioactivity is the signal in a displacement assay; it reports binding, not function.)

The target in a further assay is human μ opioid receptor (Homo sapiens (Human), UniProt P35372). Kind of assay: Functional activity ([35S]GTPγS binding). The class given is biochemical. Conditions: [35S]GTPγS 0.080 nM, CHO cell membranes, 60 min at 30° C., filtration. As to the method: The [^35S]GTPγS assay measures the functional properties of a compound by quantifying the level of G-protein activation following agonist binding in studies using stably transfected cells, and is considered to be a measure of the efficacy of a compound. Membranes from CHO (Chinese Hamster Ovary) cells that stably expressed one type of the cloned human opioid receptor human were used in the experiments. In a final volume of 0.5 mL, 12 different concentrations of each test compound were incubated with 7.5 μg of CHO cell membranes that stably expressed the human p opioid receptor. The assay buffer consisted of 50 mM Tris-HCl, pH 7.4, 3 mM MgCl2, 0.2 mM EGTA, 3 μM GDP, and 100 mM NaCl. The final concentration of [35S]GTPγS was 0.080 nM. Nonspecific binding was measured by inclusion of 10 μM GTPγS. Binding was initiated by the addition of the membranes. After an incubation of 60 min at 30° C., the samples were filtered through Schleicher & Schuell No. 32 glass fiber filters. The filters were washed three times with cold 50 mM Tris-HCl, pH 7.5, and were counted in 2 mL of Ecoscint scintillation fluid.

In general, Ki refers to a measure of affinity in units of concentration, obtained from inhibition or displacement. Read a low Ki as a stronger hold on the target. By EC50 is commonly meant the concentration that produces a half-maximal response. Low values mean an effect from little substance, high ones a need for much substance. Consider `COC1(c2ccnc(C(N)=O)c2)C2CCCC1CN(Cc1ccn[nH]1)C2` [Compound 100, 4-((1R,5S,9r)-3-((1H-pyrazol-5-yl)methyl)-9-methoxy-3-azabicyclo[3.3.1]nonan-9-yl)picolinamide hydrochloride], for which the inhibitory constant (Ki) at μ-receptor was under 1 nM. The compound further returned an EC50 at human μ opioid receptor of 10 to 75 nM.
Taken in the same sequence, the figures for `COC[C@H](C)N1CC2CCCC(C1)C2(OC)c1ccnc(C(N)=O)c1.Cl` (single isomer, unassigned) [Compound 61, hydrochloride] were 1 to 5 nM and 10 to 75 nM.
The like results for `Cl.[2H]C([2H])([2H])N1CC2CCCC(C1)C2(OC)c1cccc(C(N)=O)c1` [Compound 54, 3-((1R,5S,9r)-9-methoxy-3-(trideuteriomethyl)-3-azabicyclo[3.3.1]nonan-9-yl)benzamide hydrochloride] were, in that order, under 1 nM and under 10 nM.
The like results for `COC1(c2cccc(C(N)=O)c2)C2CCCC1CN(CC1COC1)C2` [Compound 51, 3-((1R,5S,9r)-9-methoxy-3-(oxetan-3-ylmethyl)-3-azabicyclo[3.3.1]nonan-9-yl)benzamide (S)-2-hydroxysuccinate] were, in that order, under 1 nM and 10 to 75 nM.
Take `COC1(c2ccnc(C(N)=O)c2)C2CCCC1CN(C1CCCC1)C2` [Compound 55, 4-((1R,5S,9r)-3-cyclopentyl-9-methoxy-3-azabicyclo[3.3.1]nonan-9-yl)picolinamide hydrochloride]: the Ki at μ-receptor was under 1 nM. In addition, the concentration giving a half-maximal response (EC50) on human μ opioid receptor lay within 10 to 75 nM.
The like results for `COC1(c2ccnc(C(N)=O)c2)C2CCCC1CN(C13CC(c4ccccc4)(C1)C3)C2` [Compound 106, 4-((1R,5S,9r)-9-methoxy-3-(3-phenylbicyclo[1.1.1]pentan-1-yl)-3-azabicyclo[3.3.1]nonan-9-yl)picolinamide hydrochloride] were, in that order, under 1 nM and under 10 nM.
The like results for `COC1(c2ccc(C(N)=O)s2)C2CCCC1CN(C13CC(C1)C3)C2` [Compound 112, 5-((1R,5S,9r)-3-(bicyclo[1.1.1]pentan-1-yl)-9-methoxy-3-azabicyclo[3.3.1]nonan-9-yl)thiophene-2-carboxamide hydrochloride] were, in that order, 1 to 5 nM and over 75 nM.
For the compound `COC1(c2ccc(C(N)=O)s2)C2CCCC1CN(C1CN(C(C)=O)C1)C2` [Compound 114, 5-((1R,5S,9r)-3-(1-acetylazetidin-3-yl)-9-methoxy-3-azabicyclo[3.3.1]nonan-9-yl)thiophene-2-carboxamide hydrochloride], the inhibitory constant (Ki) at μ-receptor is over 5 nM. The compound further yielded an EC50 at human μ opioid receptor of over 75 nM.
The like results for `COC1(c2ccnc(C(N)=O)c2)C2CCCC1CN([C@H]1C[C@@H](C)C1)C2` (stereo partly drawn) [Compound 130, 4-((1R,5S,9R)-9-methoxy-3-((1s,3S)-3-methylcyclobutyl)-3-azabicyclo[3.3.1]nonan-9-yl)picolinamide hydrochloride] were, in that order, under 1 nM and 10 to 75 nM.
As for `COC1(c2ccnc(C(N)=O)c2)C2CCCC1CN(Cc1cncn1C)C2` [Compound 121, 4-((1R,5S,9r)-9-methoxy-3-((1-methyl-1H-imidazol-5-yl)methyl)-3-azabicyclo[3.3.1]nonan-9-yl)picolinamide hydrochloride], at μ-receptor, the Ki is 1 to 5 nM. Also, the EC50 at human μ opioid receptor was over 75 nM.
Taken in the same sequence, the figures for `COC1(c2ccnc(C(N)=O)c2)C2CCCC1CN(CC1(O)CC1)C2` [Compound 72, 4-((1R,5S,9r)-3-((1-hydroxycyclopropyl)methyl)-9-methoxy-3-azabicyclo[3.3.1]nonan-9-yl)picolinamide hydrochloride] were 1 to 5 nM and over 75 nM.
`COC1(c2cccc(C(N)=O)c2)C2CCCC1CN(C1CCC(F)(F)CC1)C2` [Compound 9, 3-((1R,5S,9r)-3-(4,4-difluorocyclohexyl)-9-methoxy-3-azabicyclo[3.3.1]nonan-9-yl)benzamide hydrochloride] gave a Ki at μ-receptor of under 1 nM. The same compound came in with a concentration giving a half-maximal response (EC50) on human μ opioid receptor of 10 to 75 nM.
Taken in the same sequence, the figures for `COC1(c2cccc(C(N)=O)c2)C2CCCC1CN(CC1(F)CC1)C2` [Compound 40, 3-((1R,5S,9r)-3-((1-fluorocyclopropyl)methyl)-9-methoxy-3-azabicyclo[3.3.1]nonan-9-yl)benzamide hydrochloride] were under 1 nM and 10 to 75 nM.
`COC1(c2cccc(C(N)=O)c2)C2CCCC1CN(CCS(C)(=O)=O)C2` [Compound 150, 3-((1R,5S,9r)-9-methoxy-3-(2-(methylsulfonyl)ethyl)-3-azabicyclo[3.3.1]nonan-9-yl)benzamide hydrochloride]: at μ-receptor, the Ki was in the range of 1 to 5 nM. The compound also showed a half-maximal effective concentration (EC50) on human μ opioid receptor of over 75 nM.
Taken in the same sequence, the figures for `COC1(c2ccnc(C(N)=O)c2)C2CCCC1CN([C@@H]1C[C@H]3C[C@H]3C1)C2` (stereo partly drawn) [Compound 93, 4-((1R,5S,9R)-3-((1R,3r,5S)-bicyclo[3.1.0]hexan-3-yl)-9-methoxy-3-azabicyclo[3.3.1]nonan-9-yl)picolinamide hydrochloride] were 1 to 5 nM and 10 to 75 nM.
The like results for `COC1(c2ccnc(C(N)=O)c2)C2CCCC1CN(Cc1cnco1)C2` (centres unmarked) [Compound 115, hydrochloride] were, in that order, 1 to 5 nM and 10 to 75 nM.
Consider `COC1(c2ccc(C(N)=O)s2)C2CCCC1CN(CC1CC1)C2` [Compound 36, 5-((1R,5S,9r)-3-(cyclopropylmethyl)-9-methoxy-3-azabicyclo[3.3.1]nonan-9-yl)thiophene-2-carboxamide hydrochloride], for which, at μ-receptor, the inhibition constant (Ki) is under 1 nM. The same compound displayed an EC50 on human μ opioid receptor of 10 to 75 nM.
The like results for `COC1(c2ccc(C(N)=O)s2)C2CCCC1CN(CCN1CCNC1=O)C2` [Compound 95, 5-((1R,5S,9r)-9-methoxy-3-(2-(2-oxoimidazolidin-1-yl)ethyl)-3-azabicyclo[3.3.1]nonan-9-yl)thiophene-2-carboxamide (S)-2-hydroxysuccinate] were, in that order, 1 to 5 nM and over 75 nM.
Taken in the same sequence, the figures for `COC1(c2cccc(C(N)=O)c2)C2CCCC1CN(Cc1ccccc1)C2` [Compound 21, 3-((1R,5S,9r)-3-benzyl-9-methoxy-3-azabicyclo[3.3.1]nonan-9-yl)benzamide hydrochloride] were under 1 nM and under 10 nM.
The like results for `COC1(c2cccc(C(N)=O)c2)C2CCCC1CN(C1CCOCC1)C2` [Compound 45, 3-((1R,5S,9r)-9-methoxy-3-(tetrahydro-2H-pyran-4-yl)-3-azabicyclo[3.3.1]nonan-9-yl)benzamide hydrochloride] were, in that order, 1 to 5 nM and 10 to 75 nM.
Consider `COC1(c2ccnc(C(N)=O)c2)C2CCCC1CN(C1CC(c3ccccc3)C1)C2` [Compound 89, 4-((1R,5S,9R)-9-methoxy-3-((1s,3S)-3-phenylcyclobutyl)-3-azabicyclo[3.3.1]nonan-9-yl)picolinamide hydrochloride], for which the Ki at μ-receptor is under 1 nM. Besides, the 50% effective concentration (EC50) at human μ opioid receptor is under 10 nM.
Taken in the same sequence, the figures for `COC[C@@H](C)N1CC2CCCC(C1)C2(OC)c1ccnc(C(N)=O)c1` (single isomer, unassigned) [Compound 62, hydrochloride] were over 5 nM and over 75 nM.
Taken in the same sequence, the figures for `COC1(c2ccnc(C(N)=O)c2)C2CCCC1CN(C1CC(F)(F)C1)C2` [Compound 82, 4-((1R,5S,9r)-3-(3,3-difluorocyclobutyl)-9-methoxy-3-azabicyclo[3.3.1]nonan-9-yl)picolinamide hydrochloride] were 1 to 5 nM and 10 to 75 nM.
Taken in the same sequence, the figures for `COC1(c2cccc(C(N)=O)c2)C2CCCC1CN([C@H]1CCCOC1)C2.Cl` (single isomer, unassigned) [Compound 140, hydrochloride] were under 1 nM and 10 to 75 nM.
Compound `COC1(c2ccnc(C(N)=O)c2)C2CCCC1CN(C1CC3CCC(C1)O3)C2` [Compound 10, 4-((1R,5S,9R)-3-((1R,3r,5S)-8-oxabicyclo[3.2.1]octan-3-yl)-9-methoxy-3-azabicyclo[3.3.1]nonan-9-yl)picolinamide hydrochloride] registered an inhibition constant (Ki) on μ-receptor of over 5 nM. Also, the 50% effective concentration (EC50) at human μ opioid receptor is over 75 nM.
